Results published in patent US20050054637A1, “Substituted piperazine cyclohexane carboxilic acid amides and the use thereof” (priority 2001, published 2005).
pIC50: −log10 of the molar value.

Legend:
[1] = system: adenosine uptake in rabbit erythrocytes; assay: Inhibition of the adenosine uptake in rabbit erythrocytes (functional adenosine-uptake test); type: cell-based; settings: Oryctolagus cuniculus, 0.25 h; rabbit erythrocyte preparation, 30° C., adenosine remaining 15 min after addition of adenosine
Protocol: 1. Inhibition of the Adenosine Uptake in Rabbit Erythrocytes by the Compounds According to the Invention
The capability of substnaces to influence the adenosine-uptake system is investigated by determining the inhibitory effect of the substances on functional adenosine uptake.
For the functional adenosine-uptake test, an erythrocyte preparation from rabbit blood is used. The blood is drawn intravenously using citrate (3 ml Monovette 9NC from Sarstedt) as anticoagulant. The blood is centrifuged at 3000 g for 5 min and the erythrocytes are suspended in 10 mM 3-(N-morpholino)propanesulphonic acid buffer (MOPS)/0.9% aqueous sodium chloride solution pH 7.4. The suspension is diluted to one hundredth of the original blood volume. In each case, 990 μl of the suspension are admixed with 10 μl of a suitable concentration of the substance to be examined, and the mixture is incubated at 30° C. for 5 min. 5 μl of a 4 mM adenosine solution are then added, and the mixture is incubated at 30° C. for another 15 min. The samples are then centrifuged at 3000 g for 5 min and in each case 700 μl of the supernatant are mixed with 28 μl of 70% strength HClO4, allowed to stand in an ice bath for 30 min and centrifuged at 16 000 g for 3 min, and 350 μl of the sample are neutralized using 30 μl of 5 N NaOH. 50 μl of the sample are applied to a column (Waters Symmetry C18 5 μm, 3.9×150 mm). A Spherisorb ODS II 5 μm, 4.6×10 mm column is used as precolumn The mobile phase used is a gradient of 50 mM KH2PO4/5 mM tributylamine pH 7 (mobile phase A) and a mixture of mobile phase A/methanol 1:1 (mobile phase B). The gradient is from 10% to 40% B, at a flow rate of 0.5 ml/min. The adenosine which is present is quantified by its absorption at 260 nm, as are the hypoxanthine and inosine formed.
Table 1 below lists the IC50 values obtained using this test: […]

[2] = system: mongrel dogs; assay: In vivo test model for adenosine-uptake inhibitors: reactive hyperaemia after coronary occlusion in anaesthetized dogs; parameters: species or system dog; settings: 10 μg/kg i.v., reactive hyperaemia after four-minute occlusion
Protocol: 2. In vivo Test Model for Testing Adenosine-Uptake Inhibitors
Adult mongrel dogs (body weight 20-30 kg) are initially anaesthetized using a combination of trapanal 500 mg and alloferin 55 mg. Anaesthesia is maintained by infusion of a mixture of fentanyl 0.072 mg/kg, alloferin 0.02 mg/kg and dihydrobenzpyridyl 0.25 mg/kg×min. The animals are intubated and ventilated with a mixture of O2/N2O (ratio 1:5) using a Dräger ventilation pump at 16 breaths per min and a volume of 18-24 ml/kg. The body temperature is maintained at 38° C.±0.1° C. Arterial blood pressure is measured via a catheter in the femoral artery. A thoractomy is carried out on the left side at the fifth intercostal space. The lung is pushed back and fixed and a cut is made in the pericardium. A proximal section of the LAD distally to the first diagonal branch is exposed and a calibrated electromagnetic flow sensor (from Scalar) is placed around the vessel and attached to a flow meter (from Scalar, model MDL 1401). Distally to the flow sensor, a mechanical occluder is attached such that there are no branches in between flow sensor and occluder.
Using a catheter in the femoral vein, blood samples are taken and substances (10 μg/kg i.v.) are administered. A peripheral ECG is recorded using needles which are fixed subcutaneously. A microtip pressure manometer (from Millar, model PC-350) is pushed through the left atrium to measure the pressure in the left ventricle. Measurement of the heart frequency is triggered by the R wave of the ECG. During the entire experiment, the haemodynamic parameters and the coronary flow are recorded using a multi-event recorder.
A four-minute occlusion causes reactive hyperaemia. The difference between the coronary flow under control conditions and the maximum flow during the reactive hyperaemia is measured. The time which is required to achieve half of this maximum flow in the drop is a suitable parameter to assess the reaction hyperaemia.
After a stabilization period of one hour, the experiment is started with a four-minute occlusion. Thirty minutes later, the substance is administered (i.v.) which is, after two minutes, followed by re-occlusion. The reactive hyperaemia after verum and placebo is compared.

Structure (SMILES)	pIC50 [1]	Increase of coronary blood flow in % [2]
NC(=O)[C@@H](NC(=O)[C@@H]1CCCC[C@H]1N1CCN(C(=O)c2ccc(F)cc2F)CC1)c1ccccc1 [Example 16, (1R,2R)-N-[(1S)-2-Amino-2-oxo-1-phenylethyl]-2-[4-(2,4-difluorobenzoyl)-1-piperazinyl)cyclohexanecarboxamide]	7.52	326%
Cc1ccc(C(=O)N2CCN([C@@H]3CCCC[C@H]3C(=O)N[C@H](C(N)=O)c3ccccc3)CC2)s1 [Example 17, (1R,2R)-N-[(1S)-2-Amino-2-oxo-1-phenylethyl]-2-{4-[(5-methyl-2-thienyl)-carbonyl]-1-piperazinyl}cyclohexanecaiboxamide]	7.70	250%
NC(=O)[C@@H](NC(=O)[C@@H]1CCCC[C@H]1N1CCN(C(=O)c2ccc3c(c2)OCO3)CC1)c1ccccc1 [Example 66]	7.70	
NC(=O)[C@@H](NC(=O)[C@@H]1CCCC[C@H]1N1CCN(C(=O)c2ccccc2)CC1)c1ccc(F)cc1 [Example 2, (1R,2R)-N-[(1S)-2-Amino-2-oxo-1-(4-fluorophenyl)ethyl]-2-(4-benzoyl-1-piperazin-yl)cyclohexanecarboxamide]	7.52	
NC(=O)[C@@H](NC(=O)[C@@H]1CCCC[C@H]1N1CCN(C(=O)OC2CCCC2)CC1)c1ccccc1 [Example 21]	7.82	

Continued, in another order:

pIC50 [1]	Structure (SMILES)	Increase of coronary blood flow in % [2]
7.70	NC(=O)[C@@H](NC(=O)[C@@H]1CCCC[C@H]1N1CCN(C(=O)c2ccccc2F)CC1)c1ccccc1 [Example 27]	
7.52	NC(=O)[C@@H](NC(=O)[C@@H]1CCCC[C@H]1N1CCN(C(=O)c2ccc[nH]2)CC1)c1ccccc1 [Example 18, (1R,2R)-N-[(1S)-2-Amino-2-oxo-1-phenylethyl]-2-{4-[(2-pyrrolyl)carbonyl]-1-piperazinyl}cyclohexanecarboxamide]	347%
7.52	NC(=O)[C@@H](NC(=O)[C@@H]1CCCC[C@H]1N1CCN(C(=O)c2n[nH]c3ccccc23)CC1)c1ccccc1 [Example 3, (1R,2R)-N-[(1S)-2-Amino-2-oxo-1-phenylethyl]-2-[4-(1H-indazol-3-ylcarbonyl)-1-piperazinyl]cyclohexanecarboxamide]	
7.52	NC(=O)[C@@H](NC(=O)[C@@H]1CCCC[C@H]1N1CCN(C(=O)c2ccccc2)CC1)c1ccccc1 [Example 1, (1R,2R)-N-[(1S)-2-Amino-2-oxo-1-phenylethyl]-2-(4-benzoyl-1-piperazinyl)cyclo-hexanecarboxamide]	258%
7.10	NC(=O)[C@@H](NC(=O)[C@@H]1CCCC[C@H]1N1CCN(Cc2ccccc2)CC1)c1ccc(F)cc1 [Example 8, (1R,2R)-N-[(1S)-2-Amino-1-(4-fluorophenyl)-2-oxoethyl]-2-(4-benzyl-1-piperazinyl)cyclohexanecarboxamide]	
